# Measured values from ChEMBL document CHEMBL4304757, “Synthetic heterocyclic candidates as promising α-glucosidase inhibitors: An overview” (Eur J Med Chem, 2019).
# Tests used:
# [1] = Inhibition of yeast alpha-glucosidase using p-nitrophenyl-alpha-d-glucopyranoside as substrate preincubated for 15 mins followed by substrate addition measured after 20 mins; design: species or system Saccharomyces cerevisiae
# [2] = target: T1, Alpha glucosidase (Homo sapiens, UniProt O43451+P10253+P14410+Q2M2H8); experiment: Inhibition of alpha-glucosidase (unknown origin) using p-nitro phenyl glucopyranoside as substrate preincubated for 10 mins followed by substrate addition measured after 30 mins; type: protein assay
# [3] = tested on: MDA-MB-231; experiment: Cytotoxicity against human MDA-MB-231 cells assessed as reduction in cell viability at 100 uM relative to control; type: functional, cell-based; settings: for IC50: Homo sapiens, MDA-MB-231
# [4] = Inhibition of yeast alpha-glucosidase using p-nitrophenyl-alpha-d-glucopyranoside as substrate preincubated for 15 mins followed by substrate addition measured after 30 mins; design: species or system Saccharomyces cerevisiae
# [5] = target: T1, Alpha glucosidase; experiment: Inhibition of alpha-glucosidase (unknown origin) using p-nitrophenyl-alpha-d-glucopyranoside as substrate preincubated for 5 mins followed by substrate addition measured after 30 mins; type: protein assay
# [6] = target: T1, Alpha glucosidase; experiment: Inhibition of alpha-glucosidase (unknown origin) using p-nitrophenyl-alpha-d-glucopyranoside as substrate preincubated for 10 mins followed by substrate addition measured after 20 mins; type: protein assay
# [7] = Inhibition of yeast alpha-glucosidase using p-nitrophenyl-alpha-d-glucopyranoside as substrate preincubated for 5 mins followed by substrate addition measured after 5 mins; design: species or system Saccharomyces cerevisiae
structure (smiles),measurement,setting,value
COc1cc(-c2nc3ccc(N4CCOCC4)cc3[nH]2)ccc1O,IC50,[1],3.4 to 20 µM
O=C(N/N=C/c1cc(Cl)ccc1O)c1nc(-c2cc3ccccc3oc2=O)cs1,IC50,[2],6.2 to 81 µM
CN1CCN(c2ccc3nc(-c4ccc(O)c(O)c4)[nH]c3c2)CC1,IC50,[1],2.2 to 21 µM
O=C(N/N=C/c1ccc(O)c(O)c1)c1nc(-c2cc3ccccc3oc2=O)cs1,IC50,[2],6.2 to 81 µM
CC[C@]1(O)C[C@H]2CN(CCc3c([nH]c4ccccc34)[C@@](C(=O)OC)(c3cc4c(cc3OC)N(C=O)[C@H]3[C@@](O)(C(=O)OC)[C@H](OC(C)=O)[C@]5(CC)C=CCN6CC[C@]43[C@@H]65)C2)C1 [VINCRISTINE],Activity,[3],74.5%
C[C@H]1O[C@H](O[C@H]2[C@H](O)[C@@H](O)[C@@H](O[C@H]3[C@H](O)[C@@H](O)C(O)O[C@@H]3CO)O[C@@H]2CO)[C@H](O)[C@@H](O)[C@@H]1N[C@H]1C=C(CO)[C@@H](O)[C@H](O)[C@H]1O (stereo partly drawn) [ACARBOSE],IC50,[4],937 µM
Cc1cccc(N2C(=O)/C(=C/c3ccc(F)cc3)S/C2=N\NC(=O)c2cc3ccccc3oc2=O)c1C,IC50,[5],> 100 µM
same,Activity,[3],>=76%
CN(C)c1ccc(-c2nc3ccc(N4CCOCC4)cc3[nH]2)cc1,IC50,[1],3.4 to 20 µM
Cc1cccc(C(c2c(N)c3ccccc3oc2=O)c2c(N)c3ccccc3oc2=O)c1,IC50,[6],20 to 180 µM
COc1ccc(/C=N/NC(=O)c2nc(-c3cc4ccccc4oc3=O)cs2)cc1,IC50,[2],6.2 to 81 µM
O=C(N/N=C/c1ccc(C(F)(F)F)cc1)c1nc(-c2cc3ccccc3oc2=O)cs1,IC50,[2],6.2 to 81 µM
O=C(CC(c1ccc(Br)cc1)C(C(=O)Nc1ccccn1)C(=O)Nc1ccccn1)c1ccccc1 (stereo not drawn),IC50,[4],12 µM
Cc1[nH]nc2c1C(c1ccccc1OCc1ccccc1)C(C#N)=C(N)O2 (stereo not drawn),IC50,[4],60 to 180 µM
Nc1c(C(c2ccc([N+](=O)[O-])cc2)c2c(N)c3ccccc3oc2=O)c(=O)oc2ccccc12,IC50,[6],20 to 180 µM
CC(C)(C)c1cc(/C=N/NC(=O)c2nc(-c3cc4ccccc4oc3=O)cs2)c(O)c(C(C)(C)C)c1,IC50,[2],6.2 to 81 µM
COc1ccccc1/C=N/NC(=O)c1nc(-c2cc3ccccc3oc2=O)cs1,IC50,[2],6.2 to 81 µM
O=C(N/N=C/c1ccc(O)cc1)c1nc(-c2cc3ccccc3oc2=O)cs1,IC50,[2],6.2 to 81 µM
CN1CCN(c2ccc3nc(-c4ccc(Cl)cc4)[nH]c3c2)CC1,IC50,[1],2.2 to 21 µM
Cc1ccccc1N1C(=O)/C(=C/c2ccc(F)cc2)S/C1=N\NC(=O)c1cc2ccccc2oc1=O,IC50,[5],0.09 to 1.6 µM
same,Activity,[3],>=76%
COc1ccc(/C=N/NC(=O)c2nc(-c3cc4ccccc4oc3=O)cs2)c(O)c1,IC50,[2],6.2 to 81 µM
CN1CCN(c2ccc3nc(-c4ccccn4)[nH]c3c2)CC1,IC50,[1],2.2 to 21 µM
Cc1n[nH]c2c1C(c1ccc(Cl)cc1Cl)C(C#N)=C(N)O2 (stereo not drawn),IC50,[4],60 to 180 µM
c1ccc2c(c1)c1ccccc1n2Cc1cn(Cc2ccc(Cn3cc(Cn4c5ccccc5c5ccccc54)nn3)cc2)nn1,IC50,[4],3.6 µM
O=C(N/N=C1\S/C(=C\c2ccc(F)cc2)C(=O)N1c1cccc(Cl)c1)c1cc2ccccc2oc1=O,IC50,[5],> 100 µM
same,Activity,[3],>=76%
O=C(N/N=C/c1cccc(Br)c1)c1nc(-c2cc3ccccc3oc2=O)cs1,IC50,[2],6.2 to 81 µM
COc1ccccc1N1C(=O)/C(=C/c2ccc(F)cc2)S/C1=N\NC(=O)c1cc2ccccc2oc1=O,IC50,[5],0.09 µM
same,Activity,[3],72.8%
Cc1ccc(C)c(N2C(=O)/C(=C/c3ccc(F)cc3)S/C2=N\NC(=O)c2cc3ccccc3oc2=O)c1,IC50,[5],> 100 µM
same,Activity,[3],>=76%
COc1ccc(-c2nnc(-c3cc4ccc([N+](=O)[O-])cc4o3)o2)cc1O,IC50,[7],12 to 162 µM
Cc1[nH]nc2c1C(c1ccc(O)c(OCc3ccccc3)c1)C(C#N)=C(N)O2 (stereo not drawn),IC50,[4],60 to 180 µM
c1cncc(Cn2cc(Cn3c4ccccc4c4ccccc43)nn2)c1,IC50,[4],0.8 µM
O=[N+]([O-])c1ccc2cc(-c3nnc(-c4ccccc4O)o3)oc2c1,IC50,[7],12 to 162 µM
Cc1ccc(N2C(=O)/C(=C/c3ccc(F)cc3)S/C2=N\NC(=O)c2cc3ccccc3oc2=O)cc1C,IC50,[5],0.09 to 1.6 µM
same,IC50,[3],0.09 to 1.6 µM
COc1cc(-c2nc3ccc(N4CCN(C)CC4)cc3[nH]2)ccc1O,IC50,[1],2.2 to 21 µM
O=C(N/N=C/c1ccccc1O)c1nc(-c2cc3ccccc3oc2=O)cs1,IC50,[2],6.2 to 81 µM
O=C(Cn1cc(Cn2c3ccccc3c3ccccc32)nn1)c1ccc(O)c(Br)c1,IC50,[4],0.61 to 1 µM
NNC(=O)Cn1c(Cc2ccc(Cl)cc2Cl)nc2ccc([N+](=O)[O-])cc21,IC50,[1],10 µM
O=C(N/N=C1\S/C(=C\c2ccc(F)cc2)C(=O)N1c1ccc(Cl)cc1)c1cc2ccccc2oc1=O,IC50,[5],0.09 to 1.6 µM
same,Activity,[3],>=76%
Oc1ccc(-c2nc3ccc(N4CCOCC4)cc3[nH]2)cc1O,IC50,[1],3.4 to 20 µM
c1ccc2c(c1)c1ccccc1n2Cc1cn(Cc2ccc(-c3ccc(Cn4cc(Cn5c6ccccc6c6ccccc65)nn4)cc3)cc2)nn1,IC50,[4],73 µM
O=[N+]([O-])c1ccc2cc(-c3nnc(-c4ccccc4F)o3)oc2c1,IC50,[7],12 to 162 µM
Cc1ccc(N2C(=O)/C(=C/c3ccc(F)cc3)S/C2=N\NC(=O)c2cc3ccccc3oc2=O)c(C)c1,IC50,[5],0.09 to 1.6 µM
same,Activity,[3],>=76%
Cc1n[nH]c2c1C(c1ccc([N+](=O)[O-])cc1)C(C#N)=C(N)O2 (stereo not drawn),IC50,[4],54 µM
O=[N+]([O-])c1ccc2cc(-c3nnc(-c4cccc(O)c4O)o3)oc2c1,IC50,[7],12 µM
COc1ccc(-c2nnc(-c3cc4ccc([N+](=O)[O-])cc4o3)o2)c(O)c1,IC50,[7],12 to 162 µM
CN1CCN(c2ccc3nc(-c4ccc(F)c(Br)c4)[nH]c3c2)CC1,IC50,[1],2.2 to 21 µM
COc1ccc(N2C(=O)/C(=C/c3ccc(F)cc3)S/C2=N\NC(=O)c2cc3ccccc3oc2=O)cc1,IC50,[5],0.09 to 1.6 µM
same,Activity,[3],>=76%
Clc1ccc(-c2nc3ccc(N4CCOCC4)cc3[nH]2)cc1,IC50,[1],3.4 to 20 µM
O=C(N/N=C/c1cccc(F)c1)c1nc(-c2cc3ccccc3oc2=O)cs1,IC50,[2],6.2 to 81 µM
Fc1ccc(-c2nc3ccc(N4CCOCC4)cc3[nH]2)cc1Br,IC50,[1],3.4 to 20 µM
Cc1ccc(C(CC(=O)c2ccccc2)C(C(=O)Nc2ccccn2)C(=O)Nc2ccccn2)cc1 (stereo not drawn),IC50,[4],28 µM
COc1cccc(N2C(=O)/C(=C/c3ccc(F)cc3)S/C2=N\NC(=O)c2cc3ccccc3oc2=O)c1,IC50,[5],0.09 to 1.6 µM
same,Activity,[3],>=76%
O=C(N/N=C1\S/C(=C\c2ccc(F)cc2)C(=O)N1c1ccccc1Cl)c1cc2ccccc2oc1=O,IC50,[5],0.09 to 1.6 µM
same,IC50,[3],0.09 to 1.6 µM
O=C(N/N=C/c1ccc(O)c(F)c1)c1nc(-c2cc3ccccc3oc2=O)cs1,IC50,[2],6.2 to 81 µM
COc1ccc(O)c(-c2nnc(-c3cc4ccc([N+](=O)[O-])cc4o3)o2)c1,IC50,[7],12 to 162 µM
O=[N+]([O-])c1ccc2cc(-c3nnc(-c4cccc(F)c4)o3)oc2c1,IC50,[7],12 to 162 µM
CN1CCN(c2ccc3[nH]c(-c4ccc(O)cc4)nc3c2)CC1,IC50,[1],2.2 µM
O=C(N/N=C/c1cccc(Cl)c1)c1nc(-c2cc3ccccc3oc2=O)cs1,IC50,[2],6.2 to 81 µM
Cc1cccc(N2C(=O)/C(=C/c3ccc(F)cc3)S/C2=N\NC(=O)c2cc3ccccc3oc2=O)c1,IC50,[5],0.09 to 1.6 µM
same,Activity,[3],>=76%
O=[N+]([O-])c1ccc2cc(-c3nnc(-c4cc(O)ccc4O)o3)oc2c1,IC50,[7],12 to 162 µM
c1ccc(-c2nc3ccc(N4CCOCC4)cc3[nH]2)nc1,IC50,[1],3.4 to 20 µM
CN1CCN(c2ccc3nc(-c4ccc(N(C)C)cc4)[nH]c3c2)CC1,IC50,[1],2.2 to 21 µM
O=[N+]([O-])c1ccc2cc(-c3nnc(-c4ccc(O)c(O)c4)o3)oc2c1,IC50,[7],12 to 162 µM
O=C(c1ccc(O)cc1)C1Cc2c(ccc3ccccc23)O1 (stereo not drawn),IC50,[4],6.5 µM
O=C(N/N=C/c1ccc(Cl)cc1)c1nc(-c2cc3ccccc3oc2=O)cs1,IC50,[2],6.2 to 81 µM
O=[N+]([O-])c1ccc2cc(-c3nnc(-c4ccc(Cl)cc4)o3)oc2c1,IC50,[7],12 to 162 µM
Cc1ccc(N2C(=O)/C(=C/c3ccc(F)cc3)S/C2=N\NC(=O)c2cc3ccccc3oc2=O)cc1,IC50,[5],0.09 to 1.6 µM
same,Activity,[3],>=76%
O=[N+]([O-])c1ccc2cc(-c3nnc(-c4ccc(O)cc4)o3)oc2c1,IC50,[7],12 to 162 µM
COc1cc(C2C(C#N)=C(N)Oc3n[nH]c(C)c32)ccc1OCc1ccccc1 (stereo not drawn),IC50,[4],60 to 180 µM
Cc1cccc(C)c1N1C(=O)/C(=C/c2ccc(F)cc2)S/C1=N\NC(=O)c1cc2ccccc2oc1=O,IC50,[5],0.09 to 1.6 µM
same,Activity,[3],>=76%
Cc1cc(C)cc(N2C(=O)/C(=C/c3ccc(F)cc3)S/C2=N\NC(=O)c2cc3ccccc3oc2=O)c1,IC50,[5],0.09 to 1.6 µM
same,IC50,[3],0.09 to 1.6 µM
O=C(N/N=C/c1ccccc1F)c1nc(-c2cc3ccccc3oc2=O)cs1,IC50,[2],6.2 to 81 µM
O=C(N/N=C/c1cc(O)ccc1O)c1nc(-c2cc3ccccc3oc2=O)cs1,IC50,[2],6.2 to 81 µM
Cc1ncc([N+](=O)[O-])n1Cn1cc(Cn2c3ccccc3c3ccccc32)nn1,IC50,[4],6.8 µM
